Measured values from ChEMBL document CHEMBL1201862, “PubChem BioAssay data set” (2004).
Values joined by “and” are separate entries in the source; they are usually repeats but may differ in a detail not shown here. Identical values can stand only once.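 Briefly, cells in 96-well plates were exposed to five compound concentrations for 48 h, and endpoints were estimated by linear interpolation. The concentration for 50% growth inhibition is given as GI50.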 Active and inactive are the calls of the source. Cut-off read from the data, not from the text of the source: active = GI50 up to about 1.1 µM and inactive = higher.

How the values were obtained:
Experiment in all cases: NCI-60 cell line screen, 48 h
NCI-H226 = tested on: NCI-H226
UACC-257 = tested on: UACC-257
OVCAR-3 = tested on: OVCAR-3
SF-295 = tested on: SF-295
OVCAR-5 = tested on: OVCAR-5
SF-539 = tested on: SF-539
OVCAR-8 = tested on: OVCAR-8
HT-29 = tested on: HT-29
786-0 = tested on: 786-0
HCT-15 = tested on: HCT-15
ACHN = tested on: ACHN
IGROV-1 = tested on: IGROV-1
SF-268 = tested on: SF-268
A498 = tested on: A498
KM12 = tested on: KM12
UACC-62 = tested on: UACC-62
NCI-H460 = tested on: NCI-H460
OVCAR-4 = tested on: OVCAR-4
NCI-H23 = tested on: NCI-H23
K562 = tested on: K562
MCF7 = tested on: MCF7
NCI-H522 = tested on: NCI-H522
MDA-MB-435 = tested on: MDA-MB-435
CCRF-CEM = tested on: CCRF-CEM
Malme-3M = tested on: Malme-3M
COLO 205 = tested on: COLO 205
SK-MEL-28 = tested on: SK-MEL-28
Hs-578T = tested on: Hs-578T
TK-10 = tested on: TK-10
DU-145 = tested on: DU-145
MDA-MB-231 = tested on: MDA-MB-231
A549 = tested on: A549
PC-3 = tested on: PC-3
CAKI-1 = tested on: CAKI-1
MDA-N = tested on: MDA-N
HOP-62 = tested on: HOP-62
UO-31 = tested on: UO-31
M14 = tested on: M14
U-251 = tested on: U-251
RXF 393 = tested on: RXF 393
SK-OV-3 = tested on: SK-OV-3
SK-MEL-5 = tested on: SK-MEL-5
HCT-116 = tested on: HCT-116
RPMI-8226 = tested on: RPMI-8226
NCI/ADR-RES = tested on: NCI/ADR-RES
SNB-75 = tested on: SNB-75
EKVX = tested on: EKVX
SK-MEL-2 = tested on: SK-MEL-2
HL-60 = tested on: HL-60
SN12C = tested on: SN12C
LOX IMVI = tested on: LOX IMVI
HOP-92 = tested on: HOP-92
SW-620 = tested on: SW-620
T47D = tested on: T47D
SNB-19 = tested on: SNB-19
MOLT-4 = tested on: MOLT-4
BT-549 = tested on: BT-549

Cc1cn2c(/C=N/NC(=N)N)c(-c3ccc(Cl)c([N+](=O)[O-])c3)nc2s1
GI50 (NCI-H226): 1.89 µM (inactive)
GI50 (UACC-257): 0.178 µM (active)
GI50 (OVCAR-3): 1.13 µM (inactive)
GI50 (SF-295): 1.3 µM (inactive)
GI50 (OVCAR-5): 1.17 µM (inactive)
GI50 (SF-539): 1.73 µM (inactive)
GI50 (OVCAR-8): 0.416 µM (active)
GI50 (HT-29): 0.55 µM (active)
GI50 (786-0): 0.984 µM (active)
GI50 (HCT-15): 1.7 µM
GI50 (ACHN): 1.76 µM (inactive)
GI50 (IGROV-1): 1.03 µM (active)
GI50 (SF-268): 1.23 µM (inactive)
GI50 (A498): 0.07 µM (active)
GI50 (KM12): 0.387 µM (active)
GI50 (UACC-62): 1.78 µM (inactive)
GI50 (NCI-H460): 1.42 µM (inactive)
GI50 (OVCAR-4): 1.55 µM (inactive)
GI50 (NCI-H23): 1.43 µM (inactive)
GI50 (K562): 0.257 µM (active)
GI50 (MCF7): 0.895 µM (active)
GI50 (NCI-H522): 0.16 µM (active)
GI50 (MDA-MB-435): 0.611 µM (active)
GI50 (CCRF-CEM): 0.267 µM (active)
GI50 (Malme-3M): 1.83 µM (inactive)
GI50 (COLO 205): 0.661 µM (active)
GI50 (SK-MEL-28): 1.71 µM (inactive)
GI50 (Hs-578T): 0.973 µM (active)
GI50 (TK-10): 1.68 µM (inactive)
GI50 (DU-145): 1.79 µM (inactive)
GI50 (MDA-MB-231): 1.13 µM (inactive)
GI50 (A549): 1.61 µM (inactive)
GI50 (PC-3): 1.58 µM (inactive)
GI50 (CAKI-1): 3.36 µM (inactive)
GI50 (MDA-N): 0.857 µM (active)
GI50 (HOP-62): 1.54 µM (inactive)
GI50 (UO-31): 1.88 µM (inactive)
GI50 (M14): 1.63 µM (inactive)
GI50 (U-251): 0.268 µM (active)
GI50 (RXF 393): 0.59 µM (active)
GI50 (SK-OV-3): 1.76 µM (inactive)
GI50 (SK-MEL-5): 1.56 µM (inactive)
GI50 (HCT-116): 0.207 µM (active)
GI50 (RPMI-8226): 0.904 µM (active)
GI50 (NCI/ADR-RES): > 28.5 µM (inactive)
GI50 (SNB-75): 1.27 µM (inactive)
GI50 (EKVX): 0.776 µM (active)
GI50 (SK-MEL-2): 0.647 µM (active)
GI50 (HL-60): 0.116 µM (active)
GI50 (SN12C): 0.705 µM (active)
GI50 (LOX IMVI): 0.409 µM (active)
GI50 (HOP-92): 1.46 µM (inactive)
GI50 (SW-620): 0.244 µM (active)

CCOP(=O)(/C=C/n1ccc(=O)[nH]c1=O)OCC
GI50 (NCI-H226): > 100 µM (inactive)
GI50 (UACC-257): > 100 µM (inactive)
GI50 (OVCAR-3): > 100 µM (inactive)
GI50 (SF-295): > 100 µM (inactive)
GI50 (OVCAR-5): > 100 µM (inactive)
GI50 (SF-539): > 100 µM (inactive)
GI50 (OVCAR-8): > 100 µM (inactive)
GI50 (T47D): > 100 µM (inactive)
GI50 (HT-29): > 100 µM (inactive)
GI50 (786-0): > 100 µM (inactive)
GI50 (HCT-15): > 100 µM
GI50 (ACHN): > 100 µM (inactive)
GI50 (IGROV-1): > 100 µM (inactive)
GI50 (SF-268): > 100 µM (inactive)
GI50 (A498): > 100 µM (inactive)
GI50 (KM12): > 100 µM (inactive)
GI50 (UACC-62): > 100 µM (inactive)
GI50 (NCI-H460): > 100 µM (inactive)
GI50 (OVCAR-4): > 100 µM (inactive)
GI50 (NCI-H23): > 100 µM (inactive)
GI50 (K562): > 100 µM (inactive)
GI50 (SNB-19): > 100 µM (inactive)
GI50 (MCF7): > 100 µM (inactive)
GI50 (NCI-H522): > 100 µM (inactive)
GI50 (MDA-MB-435): > 100 µM (inactive)
GI50 (CCRF-CEM): > 100 µM (inactive)
GI50 (COLO 205): > 100 µM (inactive)
GI50 (SK-MEL-28): > 100 µM (inactive)
GI50 (TK-10): > 100 µM (inactive)
GI50 (DU-145): > 100 µM (inactive)
GI50 (MDA-MB-231): > 100 µM (inactive)
GI50 (A549): > 100 µM (inactive)
GI50 (PC-3): > 100 µM (inactive)
GI50 (CAKI-1): > 100 µM (inactive)
GI50 (MDA-N): > 100 µM (inactive)
GI50 (MOLT-4): > 100 µM (inactive)
GI50 (HOP-62): > 100 µM (inactive)
GI50 (M14): > 100 µM (inactive)
GI50 (U-251): > 100 µM (inactive)
GI50 (RXF 393): > 100 µM (inactive)
GI50 (SK-OV-3): > 100 µM (inactive)
GI50 (SK-MEL-5): > 100 µM (inactive)
GI50 (BT-549): > 100 µM (inactive)
GI50 (HCT-116): > 100 µM (inactive)
GI50 (RPMI-8226): > 100 µM (inactive)
GI50 (NCI/ADR-RES): > 100 µM (inactive)
GI50 (SNB-75): > 100 µM (inactive)
GI50 (EKVX): > 100 µM (inactive)
GI50 (SK-MEL-2): > 100 µM (inactive)
GI50 (HL-60): > 100 µM (inactive)
GI50 (SN12C): > 100 µM (inactive)
GI50 (LOX IMVI): > 100 µM (inactive)
GI50 (SW-620): > 100 µM (inactive)

O=C1N/C(=N/N=C\C(O)C(O)C(O)C(O)CO)N/C1=C/c1ccccc1 (centres undefined)
GI50 (UACC-62): > 100 µM (inactive)
GI50 (NCI/ADR-RES): > 100 µM (inactive) and 67 µM (inactive)

O=P(O)(O)OC1C(OP(=O)(O)O)C(OP(=O)(O)O)C(OP(=O)(O)O)C(OP(=O)(O)O)C1OP(=O)(O)O (centres undefined) [PHYTATE]
GI50 (EKVX): > 500 µM (inactive)
